# Target: T1, purified recombinant full length PKC theta (Panvera, P2996) (Homo sapiens, UniProt Q04759)
# T1 construct: purified recombinant full length PKC theta (Panvera, P2996); purchased Panvera P2996
# Assay: Radioactive kinase assay for inhibition of full length (FL) PKCθ
# Type: biochemical
# Details: average value
# Description: This assay is based on the phosphorylation of a biotinylated substrate by a kinase utilizing radiolabeled ATP (ATP γ P33). The substrate was a biotinylated peptide with a sequence of biotin-[…]-C(O)NH2. […] The assay buffer was composed of 100 mM Hepes, pH7.5, 2 mM MgCl2, 20 mM β-glycerophosphate and 0.008% TritonX 100. A reaction mixture of ATP, ATP γ P33 (PerkinElmer), DTT, and the enzyme was prepared in the assay buffer and added to a 96-well polypropylene plate. The compound (diluted in DMSO in a separate 96-well polypropylene plate) was added to the reaction mixture and incubated at room temperature. Following the incubation, the peptide substrate was added to the reaction mixture to initiate the enzymatic reaction. The reaction was terminated with the addition of a stop solution (100 mM EDTA, 0.2% TritonX100, and 20 mM NaHPO4) and transferred from the assay plate to a washed streptavidin-coated 96-well scintiplate (PerkinElmer). […] Counts were recorded for each well as corrected counts per minute (CCPM). The counts were considered corrected because they were adjusted according to a P33 normalization protocol, which corrects for efficiency and background differences between the instrument detectors (software version 4.40.01).
# A Radioactive Kinase Assay for Inhibition of Full Length (FL) PKCθ Inhibitors
# This assay differs from what was described above in that the enzyme used was purified recombinant full length PKC theta (Panvera, P2996).
# T1 sequence (Q04759 whole entry): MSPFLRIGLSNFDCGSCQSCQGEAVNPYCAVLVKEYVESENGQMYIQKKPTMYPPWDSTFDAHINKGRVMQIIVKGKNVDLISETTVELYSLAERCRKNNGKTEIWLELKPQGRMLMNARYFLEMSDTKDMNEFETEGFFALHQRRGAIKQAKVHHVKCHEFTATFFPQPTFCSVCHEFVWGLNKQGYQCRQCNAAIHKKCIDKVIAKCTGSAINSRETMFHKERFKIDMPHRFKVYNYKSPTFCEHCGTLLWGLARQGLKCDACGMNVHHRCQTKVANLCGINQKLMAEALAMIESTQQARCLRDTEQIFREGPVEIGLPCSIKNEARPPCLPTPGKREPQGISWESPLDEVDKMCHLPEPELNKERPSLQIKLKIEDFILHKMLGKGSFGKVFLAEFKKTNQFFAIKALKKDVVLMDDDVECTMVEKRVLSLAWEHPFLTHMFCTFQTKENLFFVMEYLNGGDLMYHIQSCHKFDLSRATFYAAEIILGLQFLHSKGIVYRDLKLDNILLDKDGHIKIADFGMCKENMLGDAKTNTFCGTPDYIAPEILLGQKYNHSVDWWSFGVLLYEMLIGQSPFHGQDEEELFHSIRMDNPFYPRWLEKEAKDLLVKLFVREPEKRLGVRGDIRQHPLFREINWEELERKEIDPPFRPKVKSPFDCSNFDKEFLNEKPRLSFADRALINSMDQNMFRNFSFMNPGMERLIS
row,IC50 [nM],Structure (SMILES)
1,910,"N#Cc1cncc(-c2ccccc2-c2cccc(Cl)c2)c1Nc1ccc2[nH]ccc2c1 [Compound 144, 5-(3′-chlorobiphenyl-2-yl)-4-(1H-indol-5-ylamino)nicotinonitrile]"
2,7800,"COCCOc1cc(-c2cncc(C#N)c2Nc2ccc3cc[nH]c3c2)ccc1OC [Compound 155, 4-(1H-indol-6-ylamino)-5-[4-methoxy-3-(2-methoxyethoxy)phenyl]nicotinonitrile]"
3,90,"N#Cc1ccc(-c2cccc(-c3cncc(C#N)c3Nc3ccc4[nH]ccc4c3)c2)cc1 [Compound 118, 5-(4′-cyanobiphenyl-3-yl)-4-(1H-indol-5-ylamino)nicotinonitrile]"
4,30,"N#Cc1cncc(-c2cccc(OCCN3CCCC3)c2)c1Nc1cccc2[nH]ccc12 [Compound 169, 4-(1H-indol-4-ylamino)-5-[3-(2-pyrrolidin-1-ylethoxy)phenyl]nicotinonitrile]"
5,> 20000,"COc1ccc(-c2cncc(C#N)c2Oc2ccc3[nH]ccc3c2)cc1OC [Compound 220, 5-(3,4-dimethoxyphenyl)-4-(1H-indol-5-yloxy)nicotinonitrile]"
6,390,"N#Cc1cncc(-c2cccc(-c3ccc(C(=O)O)cc3)c2)c1Nc1ccc2[nH]ccc2c1 [Compound 134, 3′-[5-cyano-4-(1H-indol-5-ylamino)pyridin-3-yl]biphenyl-4-carboxylic acid]"
7,20,"N#Cc1cncc(-c2cccc(OCCN3CCOCC3)c2)c1Nc1cccc2[nH]ccc12 [Compound 170, 4-(1H-indol-4-ylamino)-5-[3-(2-morpholin-4-ylethoxy)phenyl]nicotinonitrile]"
8,170,"N#Cc1cncc(-c2cccc(-c3ccncc3)c2)c1Nc1ccc2[nH]ccc2c1 [Compound 121, 4-(1H-indol-5-ylamino)-5-(3-pyridin-4-ylphenyl)nicotinonitrile]"
9,140,"COCCOc1ccc(-c2cncc(C#N)c2Nc2ccc3[nH]ccc3c2)cc1OC [Compound 160, 4-(1H-indol-5-ylamino)-5-[3-methoxy-4-(2-methoxyethoxy)phenyl]nicotinonitrile]"
10,100,"N#Cc1cncc(-c2cccc(OCCN3CCOCC3)c2)c1Nc1ccc2[nH]ccc2c1 [Compound 175, 4-(1H-indol-5-ylamino)-5-[3-(2-morpholin-4-ylethoxy)phenyl]nicotinonitrile]"
11,50,"N#Cc1cncc(-c2cccc(OCc3ccccc3)c2)c1Nc1ccc2[nH]ccc2c1 [Compound 194, 5-[3-(benzyloxy)phenyl]-4-(1H-indol-5-ylamino)nicotinonitrile]"
12,15000,"COCCOc1ccc(-c2cncc(C#N)c2Nc2ccc3ncsc3c2)cc1OC [Compound 162, 4-(1,3-benzothiazol-6-ylamino)-5-[3-methoxy-4-(2-methoxyethoxy)phenyl]nicotinonitrile]"
13,5500,"COCCOc1ccc(-c2cncc(C#N)c2Nc2ccc3cc[nH]c3c2)cc1OC [Compound 161, 4-(1H-indol-6-ylamino)-5-[3-methoxy-4-(2-methoxyethoxy)phenyl]nicotinonitrile]"
14,2590,"N#Cc1cncc(-c2cccc(OCCN3CCCC3)c2)c1Nc1ccc2cc[nH]c2c1 [Compound 172, 4-(1H-indol-6-ylamino)-5-[3-(2-pyrrolidin-1-ylethoxy)phenyl]nicotinonitrile]"
15,20,"N#Cc1cncc(-c2cccc(OCCCl)c2)c1Nc1cccc2[nH]ccc12 [Compound 165, 5-[3-(2-chloroethoxy)phenyl]-4-(1H-indol-4-ylamino)nicotinonitrile]"

# Target: T2, human PKCθ full length enzyme (Homo sapiens, UniProt Q04759)
# T2 construct: human PKCθ full length enzyme (Panvera Cat# P2996); purchased Panvera P2996
# T2 sequence (Q04759 whole entry): as above
# Assay: PKCθ IMAP assay (fluorescence polarization)
# Type: biochemical
# Details: human PKCθ full length enzyme, IMAP; average value; read-out: IC50 PKCθ IMAP
row,IC50 [nM],Structure (SMILES)
1,5,"N#Cc1cncc(-c2ccc(O)cc2)c1Nc1cccc2[nH]ccc12 [Compound 225, 5-(4-hydroxyphenyl)-4-(1H-indol-4-ylamino)nicotinonitrile]"
2,20,"CS(=O)(=O)Nc1ccc(-c2cncc(C#N)c2Nc2cccc3[nH]ccc23)cc1 [Compound 317, N-{4-[5-cyano-4-(1H-indol-4-ylamino)pyridin-3-yl]phenyl}methanesulfonamide]"
3,60,"N#Cc1cncc(-c2ccc3c(c2)OCCO3)c1Nc1ccc2[nH]ccc2c1 [Compound 264, 5-(2,3-dihydro-1,4-benzodioxin-6-yl)-4-(1H-indol-5-ylamino)nicotinonitrile]"
4,3,"Cc1c(Nc2c(C#N)cncc2-c2cc3cc(CN4CCCC4)ccc3o2)ccc2[nH]ccc12 [Compound 389, 4-[(4-methyl-1H-indol-5-yl)amino]-5-[5-(pyrrolidin-1-ylmethyl)-1-benzofuran-2-yl]nicotinonitrile]"
5,1,"Cc1c(Nc2c(C#N)cncc2-c2cc3cc(C=O)ccc3s2)ccc2[nH]ccc12 [Compound 227, 5-(5-formyl-1-benzothien-2-yl)-4-[(4-methyl-1H-indol-5-yl)amino]nicotinonitrile]"
6,10,"N#Cc1cncc(-c2cccc(O)c2)c1Nc1cccc2[nH]ccc12 [Compound 358, 5-(3-hydroxyphenyl)-4-(1H-indol-4-ylamino)nicotinonitrile]"
7,15,"Cc1c(Nc2c(C#N)cncc2-c2cc3cc(CN4CCN(S(C)(=O)=O)CC4)ccc3o2)ccc2[nH]ccc12 [Compound 538, 4-[(4-methyl-1H-indol-5-yl)amino]-5-(5-{[4-(methylsulfonyl)piperazin-1-yl]methyl}-1-benzofuran-2-yl)nicotinonitrile]"
8,36,"Cc1c(Nc2c(C#N)cncc2-c2cccnc2)ccc2[nH]ccc12 [Compound 519, 4-[(4-methyl-1H-indol-5-yl)amino]-3,3′-bipyridine-5-carbonitrile]"
9,50,"COc1ccc(-c2cncc(C#N)c2Nc2ccc3[nH]ccc3c2)cc1OCCNCCc1ccncc1 [Compound 253, 4-(1H-indol-5-ylamino)-5-(4-methoxy-3-{2-[(2-pyridin-4-ylethyl)amino]ethoxy}phenyl)nicotinonitrile]"
10,191,"Cc1c(Nc2c(C#N)cncc2-c2cnc3ccccc3c2)ccc2[nH]ccc12 [Compound 589, 4-[(4-methyl-1H-indol-5-yl)amino]-5-quinolin-3-ylnicotinonitrile]"
11,8,"N#Cc1cncc(-c2ccc(OCCCl)cc2)c1Nc1cccc2[nH]ccc12 [Compound 332, 5-[4-(2-chloroethoxy)phenyl]-4-(1H-indol-4-ylamino)nicotinonitrile]"
12,20,"Cc1c(Nc2c(C#N)cncc2-c2ccc(OCCN3CCOCC3)cc2)ccc2[nH]ccc12 [Compound 351, 4-[(4-methyl-1H-indol-5-yl)amino]-5-[4-(2-morpholin-4-ylethoxy)phenyl]nicotinonitrile]"
13,2460,"COc1ccc(-c2cncc(C#N)c2NCCC2CCNCC2)cc1OC [Compound 444, 5-(3,4-dimethoxyphenyl)-4-[(2-piperidin-4-ylethyl)amino]nicotinonitrile]"
14,10,"COc1ccc(-c2cncc(C#N)c2Nc2ccc3[nH]ccc3c2)cc1Br [Compound 188, 5-(3-bromo-4-methoxyphenyl)-4-(1H-indol-5-ylamino)nicotinonitrile]"
15,500,"N#Cc1cncc(-c2cccc(-c3ccc(CN4CCOCC4)s3)c2)c1Nc1ccc2[nH]ccc2c1 [Compound 185, 4-(1H-indol-5-ylamino)-5-{3-[5-(morpholin-4-ylmethyl)-2-thienyl]phenyl}nicotinonitrile]"
16,2,"Cc1c(Nc2c(C#N)cncc2-c2cc3cc(CN4CCN(C)CC4)ccc3o2)cc(Cl)c2[nH]ccc12 [Compound 529, 4-[(7-chloro-4-methyl-1H-indol-5-yl)amino]-5-{5-[(4-methylpiperazin-1-yl)methyl]-1-benzofuran-2-yl}nicotinonitrile]"
